“And” between values parts separate entries of the source, which are not always exact repeats. Equal entries are not always repeated.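 Compound exposure: 48 hours, 5 concentrations, 96-well plates. At the TGI there is no net growth.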
Legend:
Assay in all cases: NCI tumour cell line growth inhibition, 48 h
RXF-631 renal = system: RXF-631 renal
DLD-1 colon = system: DLD-1 colon
PC-3 prostate = system: PC-3 prostate
DMS 114 small cell lung = system: DMS 114 small cell lung
DMS 273 small cell lung = system: DMS 273 small cell lung
HOP-18 NSCLC = system: HOP-18 NSCLC
MDA-N = system: MDA-N
XF 498 CNS = system: XF 498 CNS
SNB-78 CNS = system: SNB-78 CNS
P388 leukemia = system: P388 leukemia
SN12K1 renal = system: SN12K1 renal

Row | Structure (SMILES) | TGI (RXF-631 renal) [µM] | TGI (DLD-1 colon) [µM] | TGI (PC-3 prostate) | TGI (DMS 114 small cell lung) [µM] | TGI (DMS 273 small cell lung) [µM] | TGI (HOP-18 NSCLC) [µM] | TGI (MDA-N) | TGI (XF 498 CNS) [µM] | TGI (SNB-78 CNS) [µM] | TGI (P388 leukemia) [µM] | TGI (SN12K1 renal) [µM]
1 | CCNC(=O)/C(=C/c1ccc(OC)cc1)c1cc(OC)c(OC)c(OC)c1 | > 100 | > 100 | > 100 µM | > 57 | > 100 | > 100 | 4.26 µM | 85.3 | > 100 | – | –
2 | CO[C@H]1Nc2c(ccc(C)c2O)C(=O)N2C=C(/C=C/C(N)=O)C[C@@H]12 | – | > 47.6 | 0.656 µM | 0.044 | 0.118 | > 100 | 0.0283 µM | – | 18.4 | 0.283 | 0.0473
3 | CN(C)C(=S)SSC(=S)N(C)C | > 100 | > 64 | 26.6 µM and > 100 µM and 32 µM | 17.4 | > 100 | > 100 | 30.3 µM and 50.9 µM | > 88.3 | > 100 | – | –
4 | CC(C(=O)c1ccc(Cl)cc1)/C(=N/NC(=O)NN)C(=O)Nc1cccc(C(F)(F)F)c1 (stereo unspecified) | > 100 | > 100 | – | > 100 | > 100 | > 100 | – | > 100 | > 100 | – | –
5 | CN(C(=O)c1ccc([N+](=O)[O-])cc1)c1ccccc1 | > 100 | > 100 | – | > 10 | > 100 | > 100 | – | > 100 | > 100 | – | –
